According to patent US20130224115A1, “NON-RADIOACTIVE AGENTS FOR NEUROBLASTOMA IMAGING” (Baylor College of Medicine, priority 2010, published 2013):
Values joined by “and” are separate entries in the source; they are usually repeats but may differ in a detail not shown here. Identical values can stand only once. “Also recorded” adds a separate entry of the source.

Experiments:
[1] = test system: human neuroblastoma cells (NPG.Luc cells); experiment: NIR confocal microscopy of imaging agent uptake by neuroblastoma cells; type: cell-based; conditions: 50 μmolar, incubated overnight at 37° C., ex/em 765/810 nm
Method: Cell lines. Human neuroblastoma cancer cell lines NB1691.1uc and SYFY.luc were cultured in Dulbecco's Modified Eagle's Medium supplemented with high glucose and F12 nutrient (DMEM/F12, Invitrogen, Carlsbad, Calif.) with 10% fetal bovine serum (Hyclone, Logan, Utah) in a humidified incubator maintained at 37° C. with 5% CO2.
Confocal microscope imaging. Cells were harvested from culture and incubated overnight at 37° C. with W765-BG imaging agent or NIR dye at final concentrations of 50 μmolar. Cells were washed in PBS, then incubated for 15 min at 4° C. with Sytox green (Molecular Probes) in 95% ethanol to fix the cells and stain cell nuclei. Stained cells were then transferred to a slide and mounted for microscopic examination. Images were recorded using an Olympus confocal microscope (Model: Fluorview 1000, Olympus America, Center Valley, Pa., USA). The microscope was equipped with excitation (Ex) light source and emission (Em) filters to detect and separate W765-BG or NIR dye (ex/em 765/810 nm) and cell nuclei (ex/em 488/510 nm) signals. In the microscopic images, signal intensities were recorded from one slice of 23 cell z-stacks with 0.5 micrometers gaps. Sytox green and W765-BG or NIR dye signals were pseudo colored into green (emission at 510 nm) and red (emission at 810 nm), respectively.
Imaging of W765-BG in neuroblastoma cells. To evaluate W765-BG as a potential specific molecule, its ability to uptakes by neuroblastoma cells was examined in vitro by NIR confocal microscopy. NPG.Luc cells were treated with W765-BG or free dye overnight at 37° C., after which they were washed, fixed, and visualized by confocal microscopy.
In vitro cell uptake imaging agent. Imaging agent uptake by the cells was recorded by confocal microscopy. The images show cell morphology (FIG. 3A), cell nuclei (FIG. 3B), and W765-BG uptakes by cells (FIG. 3C). […] Those results were validated by non-overlaid NIR images (FIG. 3G and FIG. 3H).

NB1691.Luc xenograft = experiment: In vivo NIR optical imaging of NB1691.Luc tumor xenografts in mice; conditions: 7 days post inoculation, 10 nmol W765-BG, 3 nmol RGD-Cy5.5 i.v.
Method: (§1) Tumor xenografts: Four- to six-week-old female nude mice (18-22 g) (Taconic, Hudson, N.Y.) were housed and fed with sterilized pellet chow and sterilized water. Animals were maintained in a pathogen-free mouse colony. Tumor cells near confluence were harvested by incubation with 0.05% trypsin-EDTA. Cells were pelleted by centrifugation at 130×g for 5 min and resuspended in sterile phosphate-buffered saline (PBS). Approximately 1 million cells were implanted subcutaneously into the hind leg region of the mice. A total of 15 mice was used in this study.
Animal imaging. Tumors were visualized by intraperitoneal injection of 3 mg of VivoGlo Luciferin (Promega, Madison Wis.) before the imaging session, and pseudo into cyan. Ten nanomoles of W765-BG and 3 nanomoles of the vascular agent RGD-Cy5.5 were injected i.v. into the tumor-bearing mice prior to the imaging study. […] Vasculature images were recorded at wavelengths of ex/em 650/700 nm for RDG-Cy5.5 and pseudo colored into red. The W765-BG signal was recorded at wavelengths of ex/em 770/830 nm and pseudo colored into green. […]
In vivo imaging. Luciferase positive tumor cell could be detected as early as 4 days after inoculation (data not show). Different tumor growth patterns were detected at 7 days post inoculation. […]

[2] = test system: human neuroblastoma xenograft; experiment: Whole body and dissected organ imaging in the neuroblastoma xenograft mouse model (late stage tumor, imaging window); type: in vivo, mice
Method: as §1
(§2) Animal imaging. Tumors were visualized by intraperitoneal injection of 3 mg of VivoGlo Luciferin (Promega, Madison Wis.) before the imaging session, and pseudo into cyan. Ten nanomoles of W765-BG and 3 nanomoles of the vascular agent RGD-Cy5.5 were injected i.v. into the tumor-bearing mice prior to the imaging study. The animals were imaged 1 to 9 days after the injection using the Kodak In-Vivo Multispectral System FX (Carestream Health Molecular Imaging, New Haven, Conn.). Vasculature images were recorded at wavelengths of ex/em 650/700 nm for RDG-Cy5.5 and pseudo colored into red. The W765-BG signal was recorded at wavelengths of ex/em 770/830 nm and pseudo colored into green. Tumor cells, vasculature, and W765-BG signals were precisely overlaid with anatomical X-ray images.
Late stage tumor, organ image and pathological analysis. Late stage tumor mass and organ imaging were performed after the injection of additional imaging agent (FIG. 5A-H). […] Gross necropsy confirmed the necrosis in the center of this tumor. H&E stain confirmed the identification of tumor (FIG. 5I), muscle (FIG. 5J), liver (FIG. 5K), kidney (FIG. 5L), and spleen (FIG. 5M) at pathological levels.

NGP.Luc xenograft = experiment: In vivo NIR optical imaging of NGP.Luc tumor xenografts in mice
Method: as §1, §2
Imaging of W765-BG in human tumor xenografts in mice. […] Tumor-bearing mice received an intraperitoneal injection of Luciferin to visualize the tumor cells, followed by an intravenous injection of W765-BG from the tail vein. Whole body images were collected at 24 h intervals over the course of eight days. Tumors were visualized by white light, X-ray and luciferase imaging (FIG. 2). […] When merging the optical signal of W765-BG with luciferase and anatomic X-ray images (FIG. 2E-2F), their precise overlay confirms the specificity of W765-BG.
In contrast, the NGP.Luc tumor was rather diffuse without a clear margin in the early tumor growth phase (FIG. 4G). The tumor vasculature developed better than in the NB1691.Luc tumor. […] The diffused tumor growth pattern also limited the W765-BG imaging findings in this stage (FIG. 4I). Once again, the merged images show the location of the tumor cells and the vasculature status (FIG. 4J to FIG. 4L). One week later, the tumor cells became more concentrated in one location (FIG. 4M). The vasculature surrounding the tumor node was well formed (FIG. 4N) and the TBR of the vasculature agent increased to 1.90. […] The two imaging agents were distributed differently in the body (FIG. 4P). […] Merged X-ray and W765-BG images confirmed the tumor size, location and W765-BG signal intensity (FIG. 4Q).

neuroblastomas = conditions: Maris et al., 2007; cited from earlier work

| distribution of agent in dissected organs ([2]; late stage tumor, dissected organ images (FIG. 5F, 5G)) | imaging window post injection ([2]; post injection) | uptake by normal renal structures ([2]; retroperitoneal area, whole body images) | persistence of tumor specific optical signals once absorbed ([2]; xenograft mouse model) | whole body location of NIR signal (NGP.Luc xenograft; 48 hours after administration (FIG. 2)) | whole body distribution of agent signal (NGP.Luc xenograft; NGP.Luc, one week later than the early stage images (FIG. 4P)) | time optical signals were retained in the tumor after injection (NGP.Luc xenograft; after which signal strength gradually diminished) | SMILES | uptake of agent by neuroblastoma cells (NIR signal in cells, confocal microscopy) [1] | tumor-to-background ratio (TBR) (NB1691.Luc xenograft) | whole body distribution of agent signal, late stage tumor ([2]; late stage tumor, after injection of additional imaging agent (FIG. 5B, 5C)) | tumor to background ratio (NGP.Luc xenograft; 24 hours after injection) | tumor to background ratio (NGP.Luc xenograft; 48 hours after injection) | tumor to background ratio (NGP.Luc xenograft; 192 hours after injection) | tumor-to-background ratio (TBR) (NGP.Luc xenograft; NGP.Luc, early tumor growth phase (7 days post inoculation), 10 nmol W765-BG, 3 nmol RGD-Cy5.5 i.v.) | tumor-to-background ratio (TBR) (NGP.Luc xenograft; NGP.Luc, one week later than the early stage images) | uptake of agent by neuroblastoma cells (NIR signal in cells, confocal microscopy) ([1]; listed as NIR dye) | proportion of neuroblastomas in which the agent can be selectively concentrated (neuroblastomas) |
| --- | --- | --- | --- | --- | --- | --- | --- | --- | --- | --- | --- | --- | --- | --- | --- | --- | --- |
| in the tumor, liver and spleen | 8 to 9 days | did not take up | longer than one week | detected in tumor region only | mainly in the tumor region | about 48 hours | CC1(C)C(/C=C/C2=C(Oc3ccc(S(=O)(=O)O)cc3)C(=C/C=C3/N(CCCCCC(=O)NCC(=O)Nc4cccc(CNC(=N)N)c4)c4ccc(S(=O)(=O)O)cc4C3(C)C)/CCC2)=[N+](CCCCS(=O)(=O)O)c2ccc(S(=O)(=O)O)cc21 [Compound W765-BG, 2-(3-(IRdye800-Gly-amino)-benzyl)guanidine] | detected inside the cells; also recorded: internalized into cells; also recorded: take up the W765-BG agent; also recorded: high uptake | 0.95 | non-uniformly distributed in the tumor; also recorded: located only in the tumor region | 1.95 | 1.98 | 1.52 | 1.08 | 2.90 and 2.8 |  |  |
|  |  |  |  |  |  |  | CC1(C)C(/C=C/C2=C(Oc3ccc(S(=O)(=O)O)cc3)C(=C/C=C3/N(CCCCS(=O)(=O)O)c4ccc(S(=O)(=O)[O-])cc4C3(C)C)/CCC2)=[N+](CCCCCC(=O)O)c2ccc(S(=O)(=O)O)cc21 [free dye, IRDye800CW carboxylate, reference compound] | almost no detectable signal |  |  |  |  |  |  |  | almost no detectable signal |  |
|  |  |  |  |  |  |  | N=C(N)NCc1cccc([131I])c1 [MIBG, meta-iodobenzylguanidine] |  |  |  |  |  |  |  |  |  | more than 90% |
